Test: molar heat capacity at saturation pressure
Details: Liquid, Vacuum adiabatic calorimetry

CCC [propane]
Details	molar heat capacity [J/K/mol]
88.92 K	84.87
91.12 K	84.92
92.73 K	84.92
94.89 K	85.02
96.47 K	84.96
98.58 K	85.12
100.13 K	85.19
102.21 K	85.32
103.73 K	85.36
105.78 K	85.44
107.27 K	85.47
109.28 K	85.76
110.76 K	85.79
112.74 K	85.84
114.19 K	85.97
116.15 K	86.05
117.58 K	86.14
119.51 K	86.16
120.93 K	86.45
122.83 K	86.51
124.23 K	86.53
126.12 K	86.66
127.5 K	86.9
129.36 K	86.88
130.73 K	87.09
132.57 K	87.07
133.93 K	87.31
135.75 K	87.22
137.1 K	87.67
138.9 K	87.5
140.23 K	87.61
142.01 K	87.94
143.34 K	87.91
145.1 K	88.06
146.41 K	88.35
148.16 K	88.33
149.46 K	88.44
151.2 K	88.72
152.48 K	88.71
154.21 K	88.83
155.47 K	89
157.2 K	89.06
158.45 K	89.26
160.15 K	89.66
161.4 K	89.43
163.09 K	90.05
164.34 K	89.53
166 K	90.04
167.25 K	90.06
168.9 K	90.24
170.14 K	90.37
171.79 K	90.38
173.01 K	90.28
174.65 K	90.89
175.86 K	90.91
177.49 K	91.25
178.7 K	91.17
180.31 K	91.67
181.51 K	91.3
183.12 K	91.84
184.31 K	91.75
185.91 K	92.02
187.09 K	92.23
188.68 K	92.09
189.85 K	92.57
191.44 K	92.72
192.61 K	92.88
194.18 K	93.05
195.34 K	93.67
196.91 K	93.56
198.06 K	93.95
199.62 K	94.02
200.76 K	94.12
202.32 K	94.07
203.45 K	94.68
205.01 K	94.36
206.14 K	94.22
207.69 K	94.92
208.8 K	94.54
210.35 K	95.41
211.45 K	95.58
213 K	96.05
214.1 K	96.24
215.65 K	96.38
216.73 K	96.69
218.28 K	97.14
219.35 K	97.4
220.9 K	96.94
221.97 K	97.43
223.51 K	97.28
224.57 K	97.58
226.12 K	98.17
227.16 K	98.39
228.72 K	98.66
229.75 K	98.99
231.31 K	99.11
232.33 K	99.49
233.9 K	99.63
234.9 K	99.41
236.47 K	99.64
237.46 K	100.12
239.04 K	100.21
240.02 K	100.5
241.61 K	100.94
242.57 K	101.2
244.17 K	101.8
245.12 K	101.78
246.72 K	102.66
247.66 K	102.27
249.28 K	103.18
250.2 K	102.98
251.83 K	103.62
252.74 K	103.41
254.37 K	104.07
255.27 K	103.99
256.92 K	104.47
257.8 K	104.55
259.46 K	104.97
260.32 K	105.39
262 K	106
262.85 K	106.36
264.54 K	106.11
265.38 K	106.45
267.08 K	107.17
267.9 K	107.71
267.92 K	107.58
269.62 K	107.64
270.42 K	108.4
270.71 K	108.16
271.49 K	109.25
272.15 K	109.03
272.92 K	109.16
273.04 K	108.7
273.85 K	109.09
274.7 K	109.64
275.38 K	109.29
275.42 K	110.08
276.2 K	109.72
277.24 K	110.22
277.72 K	110.44
277.92 K	110.44
278.57 K	110.68
279.78 K	110.83
280.07 K	110.92
280.41 K	111.44
280.93 K	111.66
282.32 K	111.64
282.41 K	112.19
282.91 K	112.06
283.3 K	112.78
284.77 K	113.05
284.86 K	112.93
285.41 K	112.26
285.68 K	112.86
287.13 K	113.09
287.41 K	113.95
287.91 K	113.12
288.05 K	113.08
289.5 K	114.17
289.95 K	114.64
290.41 K	114.75
290.43 K	114.57
291.86 K	114.95
292.5 K	115.46
292.81 K	115.77
292.93 K	115.51
294.24 K	115.29
295.04 K	116.36
295.21 K	116
295.44 K	116.88
296.61 K	116.56
297.59 K	117.55
297.6 K	116.98
297.96 K	117.85
298.99 K	117.8
300 K	118.27
300.14 K	118.94
300.48 K	117.96
301.38 K	118.85
302.4 K	119.55
302.69 K	119.67
303.01 K	118.38
303.77 K	119.3
304.81 K	120.27
305.25 K	120.48
305.54 K	119.64
306.16 K	120.81
307.23 K	121.32
307.82 K	121.03
308.07 K	121.52
308.57 K	122.04
309.65 K	121.95
310.38 K	122.63
310.62 K	122.47
310.98 K	123.64
312.07 K	123.46
312.95 K	123.93
313.15 K	124.63
313.4 K	124.69
314.51 K	124.14
315.53 K	124.76
315.71 K	125.89
315.83 K	124.99
318.12 K	125.37
318.27 K	126.41
323.24 K	129.01
323.35 K	129.31
325.84 K	130.18
325.93 K	131.3
328.44 K	132.33
328.51 K	133.4
331.06 K	135.04
331.1 K	135.99
333.69 K	136.44
333.7 K	137.68
336.31 K	139.1
336.32 K	139.03
338.93 K	140.95
338.96 K	142.73
341.56 K	144.64
341.61 K	145.97
344.21 K	149.14
344.27 K	148.36

Reference: the NIST ThermoML archive (doi:10.1021/je900137r)
